Values joined by “and” are separate entries in the source; they are usually repeats but may differ in a detail not shown here. Equal entries are not always repeated.
Tested on: Bacillus subtilis (ATCC 19659) spores
Test: Microbicidal activity against Bacillus subtilis spores (suspension test, surviving CFU)
Assay type: cell-based
From the text: Each solution was used alone for the individual controls. Organism suspensions were used to achieve a final target concentration of 2-3×10^6 CFU per ml. For the binary system treatments, sodium hypochlorite solution and hydrogen peroxide solution, non-acidified or acidified, were sequentially added to the microorganisms. Acidified hydrogen peroxide solution was obtained by the addition of 1.0% v/v of 0.001 N hydrochloride solution. After each addition, the resulting mixture was allowed to remain in contact with the organisms for a set amount of time at room temperature (about 22° C.), as listed in the Tables 1 and 2. At the end of the treatment time, the mixtures were neutralized with 200 to 500 microliters of thiosulfate solution (2.4%) to quench the activity of sodium hypochlorite and then treated with 100 to 200 microliters of a 1% catalase solution, containing a minimum of 100 units/ul, to quench the hydrogen peroxide activity. If needed, an appropriate volume of sterile saline was added to bring the final volume of reaction mixture to 1.4 ml after neutralization. Serial dilution plate counts were performed from the contents of each vial in sterile saline and inoculated onto TSA for quantitative culture. Plates were then incubated at 37° C. and counts taken at 24 hours.
Suspensions of Bacillus subtilis (ATCC 19659) containing 100% spores, as confirmed by microscopy, were obtained by washing the spun-down cells with 50% ethanol to eliminate the vegetative form. Starting inoculum of approximately 1-3×10^6 CFU was used as in Example 1.
[…] The binary system was neutralized 30 minutes after addition of hydrogen peroxide using 2.4% thiosulfate and 1% catalase as described in Example 1.

[1] = NaOCl 0.07 mM 60 min, inoculum 1120000 CFU
[2] = NaOCl 0.07 mM 60 min, inoculum 1865000 CFU
[3] = NaOCl 0.07 mM 120 min, inoculum 1865000 CFU
[4] = NaOCl 0.7 mM 60 min, inoculum 1500000 CFU
[5] = NaOCl 0.71 mM 60 min, inoculum 1120000 CFU
[6] = NaOCl 0.71 mM 60 min, inoculum 1865000 CFU
[7] = NaOCl 0.71 mM 120 min, inoculum 1865000 CFU
[8] = NaOCl 3.5 mM 60 min, inoculum 1500000 CFU
[9] = NaOCl 7.0 mM 60 min, inoculum 1500000 CFU
[10] = NaOCl 7.05 mM 60 min, inoculum 1120000 CFU
[11] = NaOCl 7.05 mM 60 min, inoculum 1865000 CFU
[12] = NaOCl 7.05 mM 120 min, inoculum 1865000 CFU
[13] = NaOCl 70.53 mM 60 min, inoculum 1865000 CFU
[14] = NaOCl 70.53 mM 120 min, inoculum 1865000 CFU
[15] = NaOCl 705.27 mM 60 min, inoculum 1865000 CFU
[16] = NaOCl 705.27 mM 120 min, inoculum 1865000 CFU

## [Na+].[O-]Cl [NaOCl, sodium hypochlorite]
[1]
  Log 10 (CFU + 1) Survivors: 6.2
  Total Viability (CFU): 1666000 CFU
[2]
  Log 10 (CFU + 1) Survivors: 6.3
  Log Reduction: −0.1
  Total Viability (CFU): 2142000 CFU
[3]
  Log 10 (CFU + 1) Survivors: 6.3
  Log Reduction: 0.0
  Total Viability (CFU): 1834000 CFU
[4]
  Log 10 (CFU + 1) Survivors: 3.5
  Log Reduction: 2.7 and 2.66
  Total Viability (CFU): 3304 CFU
[5]
  Log 10 (CFU + 1) Survivors: 3.5
  Total Viability (CFU): 2898 CFU
[6]
  Log 10 (CFU + 1) Survivors: 4.2
  Log Reduction: 2.1
  Total Viability (CFU): 14840 CFU
[7]
  Log 10 (CFU + 1) Survivors: 3.2
  Log Reduction: 3.1
  Total Viability (CFU): 1526 CFU
[8]
  Log 10 (CFU + 1) Survivors: 2.7
  Log Reduction: 3.4 and 3.44
  Total Viability (CFU): 546 CFU
[9]
  Log 10 (CFU + 1) Survivors: 1.3
  Log Reduction: 4.9 and 4.87
  Total Viability (CFU): 20 CFU
[10]
  Log 10 (CFU + 1) Survivors: 1.3
  Total Viability (CFU): 17 CFU
[11]
  Log 10 (CFU + 1) Survivors: 1.6
  Log Reduction: 4.6
  Total Viability (CFU): 43 CFU
[12]
  Log 10 (CFU + 1) Survivors: 0.0
  Log Reduction: 6.3
  Total Viability (CFU): 0 CFU
[13]
  Log 10 (CFU + 1) Survivors: 0.0
  Log Reduction: 6.3
  Total Viability (CFU): 0 CFU
[14]
  Log 10 (CFU + 1) Survivors: 0.0
  Log Reduction: 6.3
  Total Viability (CFU): 0 CFU
[15]
  Log 10 (CFU + 1) Survivors: 0.0
  Log Reduction: 6.3
  Total Viability (CFU): 0 CFU
[16]
  Log 10 (CFU + 1) Survivors: 0.0
  Log Reduction: 6.3
  Total Viability (CFU): 0 CFU
Sodium hypochlorite from 70 mM to 0.07 mM, 60 minutes of exposure, 6.3 log10 CFU inoculum
  microbicidal activity (kill of inoculum): partial kill

From patent US20070264355A1, “BINARY COMPOSITIONS AND METHODS FOR STERILIZATION” (Binary, LLC, priority 2005, published 2007)
